Here are results for 48 molecules from US6221865A, “Inhibitors of protein isoprenyl transferases” (priority 1998, dated 2001).

Structures can show the parent of a compound that is named as a salt.

Broadly, the inhibition is the change of the read-out against control, counted positive when it falls.

The target of the first experiment is T1, protein farnesyltransferase (Rattus norvegicus, UniProt Q02293+Q04631).
T1 construct: The enzyme is purified according to Reiss, Y., et al., Cell, 62: 81-88 (1990), utilizing steps one through three; from tissue; host or cells: rat brain
T1 sequence (Q02293 whole entry, one chain of several): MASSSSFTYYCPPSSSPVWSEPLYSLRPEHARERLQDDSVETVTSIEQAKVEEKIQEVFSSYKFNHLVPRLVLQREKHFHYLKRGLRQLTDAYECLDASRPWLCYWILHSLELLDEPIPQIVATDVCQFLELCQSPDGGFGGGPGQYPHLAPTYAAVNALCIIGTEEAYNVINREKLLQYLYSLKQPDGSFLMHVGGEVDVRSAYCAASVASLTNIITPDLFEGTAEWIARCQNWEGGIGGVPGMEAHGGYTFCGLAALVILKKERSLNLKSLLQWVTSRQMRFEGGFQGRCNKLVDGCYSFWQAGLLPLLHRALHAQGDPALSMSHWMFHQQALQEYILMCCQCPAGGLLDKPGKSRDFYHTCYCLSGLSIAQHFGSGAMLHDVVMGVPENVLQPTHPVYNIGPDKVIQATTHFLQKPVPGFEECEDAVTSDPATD
Nature of the experiment: Inhibition of farnesyltransferase (scintillation proximity assay, rat brain enzyme, biotin-K Ras B fragment substrate). Format: biochemical. Conditions: 1 × 10^-5 M (Table 1). In short, it runs like this: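 Enzyme from rat brain, partly purified (steps one to three), assayed by SPA kit using 0.1 mM final biotin-K Ras B peptide as prenyl acceptor rather than biotin-lamin. Activity given as percent inhibition.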
In general terms: SPA uses beads or plates that emit light when radiolabelled molecules are held near them.
`CSCC[C@H](NC(=O)c1ccc(CNc2ccc(F)cc2)cc1-c1ccccc1)C(=O)O` [Example 687]: the “% inhibition of farnesyltransferase at 1 × 10^-5 M” value was found to be 78%.
Same read-out and setting: with `CSCC[C@H](NC(=O)c1ccc(CNCCC2CCCCC2)cc1-c1ccccc1)C(=O)O` [Example 663] the figure was 43%; with `CSCC[C@H](NC(=O)c1ccc(CNC(CO)Cc2ccccc2)cc1-c1ccccc1)C(=O)O` (stereo partly drawn) [Example 714], 56%; with `CSCC[C@H](NC(=O)c1ccc(CNc2cccc(O)c2)cc1-c1ccccc1)C(=O)O` [Example 676], 76%.
On the same count and under the same terms, with `CSCC[C@H](NC(=O)c1ccc(CNc2ccc(C)c(C)c2)cc1-c1ccccc1)C(=O)O` [Example 704] the figure was 67%.
For the molecule `CSCC[C@H](NC(=O)c1ccc(CNC(CO)C(O)c2ccccc2)cc1-c1ccccc1)C(=O)O` (stereo partly drawn) [Example 713], the “% inhibition of farnesyltransferase at 1 × 10^-5 M” value was 40%.

The experiment is the same for the next values; noted with them: 1 × 10^-6 M (Table 2).
Take `CSCC[C@H](NC(=O)c1ccc(CSc2nc(O)cc(Cc3ccccc3)n2)cc1-c1ccccc1C)C(=O)O` [Example 744]: the “% inhibition of farnesyltransferase at 1 × 10^-6 M” value (from here on “% inhibition … at 1 × 10^-6 M”) is on record as 84%.
Turning to `CSCC[C@H](NC(=O)c1ccc(OC/C=C(\C)CC/C=C(\C)CCC=C(C)C)cc1-c1ccccc1C)C(=O)O` [Example 547], the “% inhibition … at 1 × 10^-6 M” value came to 91%.
With `CSCC[C@H](NC(=O)c1ccc(NC(=O)OCCCl)cc1-c1ccccc1)C(=O)O` [Example 979], the “% inhibition … at 1 × 10^-6 M” value is on record as 26%.
With `CSCC[C@H](NC(=O)c1ccc(CNCC(O)c2cccc(O)c2)cc1-c1ccccc1)C(=O)O` (stereo partly drawn) [Example 661], the “% inhibition … at 1 × 10^-6 M” value is 45%.
Still for that read-out and setting: with `CSCC[C@H](NC(=O)c1ccc(CN(CC(C)C)C(CC2CCCCC2)CC2CCCCC2)cc1-c1ccccc1C)C(=O)O` [Example 908] the figure was 88%; with `CSCC[C@H](NC(=O)c1ccc(CN(Cc2ccco2)C(C)C)cc1-c1ccccc1C)C(=O)O` [Example 831], 92%.
As to `CSCC[C@H](NC(=O)c1ccc(COCC2CCOC2)cc1-c1ccccc1)C(=O)O` (stereo partly drawn) [Example 287], the “% inhibition … at 1 × 10^-6 M” value came to 24%.
For `CSCC[C@H](NC(=O)c1ccc(CS(=O)(=O)Cc2ccccc2)cc1-c1ccccc1C)C(=O)O` [Example 555], the “% inhibition … at 1 × 10^-6 M” value is 85%.

The same experiment, now with this note: 1 × 10^-7 M (Table 3).
In the case of `CSCC[C@H](NC(=O)c1ccc(COCc2cnc(-c3ccc(F)cc3)s2)cc1-c1ccccc1C)C(=O)O` [Example 900], the “% inhibition of farnesyltransferase at 1 × 10^-7 M” value (from here on “% inhibition … at 1 × 10^-7 M”) was determined as 95%.
The same measure, in the same setting: next, `CSCC[C@H](NC(=O)c1ccc(COCCc2ccc(-c3ccc(F)cc3)o2)cc1-c1ccccc1C)C(=O)[O-].[Li+]` [Example 535]: 89%; `CSCC[C@H](NC(=O)c1ccc(CN(Cc2ccccc2)c2ccccc2[N+](=O)[O-])cc1-c1ccccc1C)C(=O)[O-].[Li+]` [Example 849]: 66%.
Consider `CSCC[C@H](NC(=O)c1ccc(CSc2ncnc3[nH]ncc23)cc1-c1ccccc1C)C(=O)O` [Example 746], for which the “% inhibition … at 1 × 10^-7 M” value is listed as 84%.
On the same count and under the same terms, next, `CSCC[C@H](NC(=O)c1ccc(CN(CCC23CC4CC(CC(C4)C2)C3)c2ccccc2)cc1-c1ccccc1C)C(=O)O` [Example 511]: 82%; `CSCC[C@H](NC(=O)c1ccc(CN[C@@H](CO)C2CCCCC2)cc1-c1ccccc1C)C(=O)O` [Example 604]: 86%.
The same measure, in the same setting: with `CSCC[C@H](NC(=O)c1ccc(CSc2nnc(N)s2)cc1-c1ccccc1C)C(=O)O` [Example 734] the figure was 49%.
Still for that read-out and setting: with `CSCC[C@H](NC(=O)c1ccc(CSc2nnc[nH]2)cc1-c1ccccc1C)C(=O)O` [Example 735] the figure was 96%; with `COc1ccccc1N(Cc1ccccc1)Cc1ccc(C(=O)N[C@@H](CCSC)C(=O)O)c(-c2ccccc2C)c1` [Example 839], 63%.
Regarding `CCCCS(=O)(=O)N(Cc1ccc(C(=O)N[C@@H](CCSC)C(=O)O)c(-c2ccccc2C)c1)[C@H](CSCC)CC1CCCCC1` [Example 950], the “% inhibition … at 1 × 10^-7 M” value was determined as 71%.

Staying with this experiment, now noted: 1 × 10^-8 M (Table 4).
Turning to `CCCCS(=O)(=O)N(CCC1CCCCC1)Cc1ccc(C(=O)N[C@@H](CCSC)C(=O)O)c(-c2ccccc2C)c1` [Example 916], the “% inhibition of farnesyltransferase at 1 × 10^-8 M” value (“% inhibition … at 1 × 10^-8 M” below) is 96%.
The same measure, in the same setting: next, `CSCC[C@H](NC(=O)c1ccc(COCc2cc(-c3ccc(Cl)cc3)co2)cc1-c1ccccc1C)C(=O)[O-].[Li+]` [Example 904]: 85%.
For the molecule `CSCC[C@H](NC(=O)c1ccc(COCc2ccccc2C(C)C)cc1-c1ccccc1C)C(=O)[O-].[Li+]` [Example 938], the “% inhibition … at 1 × 10^-8 M” value is listed as 61%.
Turning to `CSCC[C@H](NC(=O)c1ccc(COCc2cnc(-c3ccccc3Cl)o2)cc1-c1ccccc1C)C(=O)[O-].[Li+]` [Example 892], the “% inhibition … at 1 × 10^-8 M” value stood at 59%.
For `CCCCC(OCc1ccc(C(=O)N[C@@H](CCSC)C(=O)[O-])c(-c2ccccc2C)c1)c1ccc(-c2ccc(Cl)cc2)o1.[Li+]` (stereo partly drawn) [Example 826], the “% inhibition … at 1 × 10^-8 M” value came out at 92%.
As to `CSCC[C@H](NC(=O)c1ccc(COCCc2ccc(Cl)cc2Cl)cc1-c1ccccc1C)C(=O)[O-].[Li+]` [Example 591], the “% inhibition … at 1 × 10^-8 M” value is 82%.
`CSCC[C@H](NC(=O)c1ccc(CN(Cc2ccccc2)c2cccc(Cl)c2)cc1-c1ccccc1C)C(=O)O` [Example 847]: the “% inhibition … at 1 × 10^-8 M” value amounted to 85%.
Same read-out and setting: with `CSCC[C@H](NC(=O)c1ccc(CN(Cc2cncs2)C2CCSCC2)cc1-c1ccccc1C)C(=O)O` [Example 881] the figure was 69%.

The same experiment, now with this note: read-out: % inhibition at 0.01 μM (**); Table 6, ** = 0.01 μM (footnote); title prints 0.01 mM.
On to `CSCC[C@H](NC(=O)c1ccc(CN2CCC[C@@H]2COCC2CCCCC2)cc1-c1ccccc1C)C(=O)O` [Example 1119, N-[4-(2-cyclohexylmethoxymethylpyrrolidin-1-ylmethyl)-2-(2-methylphenyl)benzoyl]methionine], for which the inhibition at 0.01 µM was found to be 84%.
Same read-out and setting: with `CSCC[C@H](NC(=O)c1ccc(CN2CC[C@H]2COCC2CCCCC2)cc1-c1ccccc1C)C(=O)O` [Example 1114, N-[4-(2(S)-cyclohexylmethoxymethylazetidin-1-ylmethyl)-2-(2-methylphenyl)benzoyl]methionine] the figure was 83%.

Staying with this experiment, now noted: read-out: % inhibition at 0.1 μM (*); Table 6, * = 0.1 μM (footnote); title prints 0.1 mM.
Consider `CSCC[C@H](NC(=O)c1ccc(CN2CC(F)(F)C[C@H]2COCC2CCCCC2)cc1-c1ccccc1C)C(=O)O` [Example 1117, N-[4-(2(S)-cyclohexylmethyloxymethyl-4,4-difluoropyrrolidin-1-ylmethyl)-2-(2-methylphenyl)benzoyl]methionine], for which the inhibition at 0.1 µM amounted to 92%.
Still for that read-out and setting: with `COC1CC(COCc2ccccc2)N(Cc2ccc(C(=O)N[C@@H](CCSC)C(=O)O)c(-c3ccccc3C)c2)C1` (stereo partly drawn) [Example 1121, N-[4-(2-benzyloxymethyl-4-methoxypyrrolidin-1-ylmethyl)-2-(2-methylphenyl)benzoyl]methionine] the figure was 72%.

Still in this experiment, the particulars now being: read-out: % inhibition of farnesyltransferase at 1 × 10^-6 M; 1 × 10^-6 M (Table 2).
Take `Cc1ccccc1-c1cc(CN(C2CC2)C2(CC3CCCCC3)CCCC2)ccc1C(=O)N[C@@H](CCS(C)(=O)=O)C(=O)O` [Example 346]: the inhibition at 1 µM was 98%.
Still for that read-out and setting: next, `CSCC[C@H](NC(=O)c1ccc(S(=O)(=O)NCCN2CCOCC2)cc1-c1ccccc1C)C(=O)O` [Example 775, lithium salt]: 32%; `CSCC[C@H](NC(=O)c1ccc(CN(C(C)C)C(C)(C)Cc2ccccc2)cc1-c1ccccc1C)C(=O)O` [Example 317]: 54%.
In the case of `Cc1ccccc1-c1cc(CNC(C)(C)Cc2ccccc2)ccc1C(=O)N[C@@H](CCS(C)(=O)=O)C(=O)O` [Example 311], the inhibition at 1 µM stood at 97%.
On the same count and under the same terms, next, `CSCC[C@H](NC(=O)c1ccc(CNC(C)(C)CC2CCCCC2)cc1-c1ccccc1C)C(=O)O` [Example 308]: 62%; `COc1ccc(CCNS(=O)(=O)c2ccc(C(=O)N[C@@H](CCSC)C(=O)O)c(-c3ccccc3C)c2)cc1OC` [Example 776]: 36%; `CSCC[C@H](NC(=O)c1ccc(CN2CCC[C@H]2COCc2ccccc2)cc1-c1ccccc1C)C(=O)O` [Example 824, N-[4-(2-benzyloxymethylpyrrolidin-1-ylmethyl)-2-(2-methylphenyl)benzoyl]methionine]: 90%.
`CSCC[C@H](NC(=O)c1ccc(C=Cc2ccccc2Cc2ccccc2)cc1-c1ccccc1C)C(=O)O` [Example 457, N-[4-(2-(2-benzylphenyl)ethenyl)-2-(2-methylphenyl)benzoyl]methionine lithium salt]: the inhibition at 1 µM turned out to be 92%.
With `Cc1ccccc1-c1cc(CCc2cccc(Oc3ccccc3)c2)ccc1C(=O)N[C@@H](CC[S+](C)[O-])C(=O)O` (stereo partly drawn) [Example 460, N-[4-(2-(3-phenoxyphenyl)ethyl)-2-(2-methylphenyl)benzoyl]-2-amino-4-methylsulfinylbutanoic acid lithium salt], the inhibition at 1 µM came to 88%.
On the same count and under the same terms, next, `CSCC[C@H](NC(=O)c1ccc(CN(C2CC2)C2(CC3CCCCC3)CCC2)cc1-c1ccccc1C)C(=O)O` [Example 330]: 98%.
In the case of `CSCC[C@H](NC(=O)c1ccc(S(=O)(=O)NCCC2CCCCC2)cc1-c1ccccc1C)C(=O)O` [Example 772, lithium salt], the inhibition at 1 µM worked out at 79%.
The same measure, in the same setting: with `CSCC[C@H](NC(=O)c1ccc(CN2C(=O)OC[C@@H]2CC2CCCCC2)cc1-c1ccccc1C)C(=O)O` [Example 349, [4-(5-cyclohexylmethyloxazolid-2-on-1-ylmethyl)-2-(2-methylphenyl)benzoyl]methionine] the figure was 99%.
